Several values for one entry are separate records, joined by “and”; a condition that tells them apart may be missing. Equal entries are not always repeated.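 96-well plates; 48 h exposure; 5 concentrations. Endpoints by linear interpolation between flanking doses. Not reached: highest tested concentration assigned. Here, GI50 denotes the concentration required for 50% inhibition of growth. TGI: concentration producing complete growth inhibition.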
Columns and labels:
Assay in all cases: NCI-60 cell line screen, 48 h
[1] = test system: PC-3 prostate
[2] = test system: OVCAR-8 ovarian
[3] = test system: RXF 393 renal
[4] = test system: OVCAR-4 ovarian
[5] = test system: CCRF-CEM leukemia
[6] = test system: UACC-257 melanoma
[7] = test system: HL-60(TB) leukemia
[8] = test system: LOX IMVI melanoma
[9] = test system: A498 renal
[10] = test system: HOP-62 NSCLC

CCCCCCCCCCCCOC1C(C(COC2OC(C3COC(C)(C)O3)C3OC(C)(C)OC23)NC(=O)Nc2ccc(C(=O)O)cc2)OC2OC(C)(C)OC21 (centres undefined) was tested, and the GI50 [1] was 2.6 µM, the TGI [1] was 7.58 µM and the GI50 [2] was 3.13 µM. It also gave a TGI [2] of 12 µM, a GI50 [3] of 2.26 µM and a TGI [3] of 4.05 µM. The GI50 [4] was 3.56 µM, the TGI [4] was 15.3 µM and the GI50 [5] was 0.306 µM. For the same compound, the TGI [5] was 0.577 µM, the GI50 [6] was 2.38 µM and the TGI [6] was 5.79 µM. For the same compound, the GI50 [7] was 2.12 µM, the TGI [7] was 5.45 µM and the GI50 [8] was 3.23 µM. For the same compound, the TGI [8] was 10.3 µM, the GI50 [9] was 2.48 µM and the TGI [9] was 8.53 µM. The GI50 [10] was 3.07 µM and the TGI [10] was 10.4 µM.

For O=C1NC(=O)C(c2cnc3ccccn23)=C1c1cn2c3c(cc(F)cc13)CN(C(=O)N1CCCCC1)CC2, the GI50 [1] was 4.17 µM, the TGI [1] was 41.8 µM and the GI50 [2] was 6.89 µM. It also gave a TGI [2] of over 92.1 µM, a GI50 [3] of 0.0224 µM and a TGI [3] of 14.7 µM. It also gave a GI50 [4] of 1.5 µM, a TGI [4] of over 63.4 µM and a GI50 [5] of 2.69 µM. The TGI [5] was 49.3 µM, the GI50 [6] was 18.1 µM and the TGI [6] was 40.4 µM. The GI50 [7] was 8.74 µM, the TGI [7] was 44.3 µM and the TGI [8] was 15.8 µM. For the same compound, the GI50 [9] was 0.0108 µM, the TGI [9] was 11.5 µM and the GI50 [10] was 15 µM. For the same compound, the TGI [10] was 40.4 µM.

CCN(CC)CCCC(CNc1ccnc2cc(Cl)ccc12)c1ccc(Cl)cc1 (centres undefined) was tested, and the GI50 [1] was 3.51 µM and 2.45 µM, the TGI [1] was 13.2 µM and 10.2 µM and the GI50 [2] was 2.61 µM and 1.57 µM. For the same compound, the TGI [2] was 7.61 µM and 3.99 µM, the GI50 [3] was 1.4 µM and 1.03 µM and the TGI [3] was 3.01 µM and 2.51 µM. The GI50 [4] was 1.07 µM and 1.04 µM, the TGI [4] was 4.28 µM and 3.36 µM and the GI50 [5] was 1.71 µM and 1.2 µM. For the same compound, the TGI [5] was 5.17 µM and 4.6 µM, the GI50 [6] was 1.97 µM and 0.583 µM and the TGI [6] was 3.74 µM and 1.61 µM. The GI50 [7] was 1.75 µM and 1.52 µM, the TGI [7] was 3.79 µM and 3.62 µM and the GI50 [8] was 0.764 µM and 0.353 µM. The TGI [8] was 2.13 µM and 1.36 µM, the GI50 [9] was 1.83 µM and 1.35 µM and the TGI [9] was 3.33 µM and 2.8 µM. The GI50 [10] was 1.83 µM and 1.64 µM and the TGI [10] was 4.23 µM and 3.73 µM.

With COc1cc(C2CC(c3cccc(Br)c3)=NN2C(C)=O)cc(OC)c1OC (centres undefined) the GI50 [1] was 0.162 µM, the TGI [1] was 36.2 µM and the GI50 [2] was 0.618 µM. The TGI [2] was over 46.2 µM, the GI50 [3] was 0.266 µM and the TGI [3] was 0.976 µM. For the same compound, the GI50 [4] was 0.624 µM, the TGI [4] was over 100 µM and the GI50 [5] was 0.264 µM. The TGI [5] was 4.5 µM, the GI50 [6] was 25.3 µM and the TGI [6] was over 84.1 µM. For the same compound, the GI50 [7] was 0.191 µM, the TGI [7] was 0.553 µM and the GI50 [8] was 0.719 µM. It also gave a TGI [8] of 57.3 µM, a GI50 [9] of 0.514 µM and a TGI [9] of over 19.7 µM. The GI50 [10] was 3.56 µM and the TGI [10] was 62.8 µM.

Work on [Cl][Hg][c]1cc(Br)cc(Br)c1 yielded a GI50 [1] of 2.16 µM, a TGI [1] of 7.2 µM and a GI50 [2] of 2.78 µM. For the same compound, the TGI [2] was 7.64 µM, the GI50 [3] was 1.45 µM and the TGI [3] was 2.85 µM. For the same compound, the GI50 [4] was 2.31 µM, the TGI [4] was 7.69 µM and the GI50 [5] was 1.32 µM. It also gave a TGI [5] of 4.22 µM, a GI50 [6] of 10 µM and a TGI [6] of 21.6 µM. For the same compound, the GI50 [7] was 1.95 µM, the TGI [7] was 4.24 µM and the GI50 [8] was 1.41 µM. It also gave a TGI [8] of 2.86 µM, a GI50 [9] of 2.64 µM and a TGI [9] of 8.01 µM. It also gave a GI50 [10] of 1.83 µM and a TGI [10] of 3.52 µM.

O=C(O)C1C2C=CC(O2)C1C(=O)NCc1ccccn1 (centres undefined) gave a TGI [1] of over 100 µM, a TGI [2] of over 100 µM and a TGI [3] of over 100 µM. For the same compound, the TGI [4] was over 100 µM, the TGI [5] was over 100 µM and the TGI [6] was over 100 µM. For the same compound, the TGI [7] was over 100 µM, the TGI [8] was over 100 µM and the TGI [9] was over 100 µM. The TGI [10] was over 100 µM.

Source: PubChem BioAssay (NCI)
